This is an account of results in the OligoGym collection.

Where “and” joins values, the source holds several entries; their conditions need not be identical. Equal values may be shown once. After the bases stand the sugars from the 5' end (letter, count) and the backbone: PS all phosphorothioate, else s phosphorothioate and o phosphodiester by linkage. Methylation of C is not given here. e = 2'-O-(2-methoxyethyl) (MOE); k = constrained ethyl (cEt); d = 2'-deoxy (DNA)

This series addresses APOL1. The following applies: ASO.

“ATTCAGAATTTCCACT (sugars kkdddddkekeddddd, PS)” had a target mRNA inhibition (A431, 2 µM) of 88%.
For “CGTCAATATATTCTTT (sugars kddddkekekeddddd, PS)”, the target mRNA inhibition runs as follows: (A431, 0.0156 µM) 0%; (A431, 0.0625 µM) 46%; (A431, 0.25 µM) 78%; (A431, 1 µM) 90%; (A431, 2 µM) 96%.
For the sequence “AGATTGGCTCTGGCTC (sugars kkddddkekekkdddd, PS)”, the target mRNA inhibition (A431, 2 µM) turned out to be 18%.
On the same count and under the same terms, under “GAAGATTGGCTCTGGC (sugars kdddddkekekddddd, PS)” stands 44%.
With “CAGTTTTGTAAGTGCA (sugars kkddddkekekkdddd, PS)”, the target mRNA inhibition (A431, 2 µM) was found to be 18%.
Same read-out and setting: under “AAGTATTGCCAGCTAA (sugars kkddddkekekkdddd, PS)” stands 27%.
As to “AAGATTGGCTCTGGCT (sugars k2 d4 e4 k2 d4, PS)”, under “A431, 2 µM”, the target mRNA inhibition is 55%.
For TGTTTACTTACCGGGT (sugars k4 d9 k3, PS), the target mRNA inhibition reads like this: (A431, 0.0625 µM) 60% and 83%; (A431, 0.25 µM) 86% and 91%; (A431, 1 µM) 91% and 93%.
Take “GTGAGTATTGTTTTTG (sugars kkddddkekekddddd, PS)”: for the setting “A431, 2 µM”, the target mRNA inhibition was found to be 88%.
“GTTATGAAATTATTGG (sugars k2 d4 e3 k2 d5, PS)” returned a target mRNA inhibition (A431, 2 µM) of 54%.
For the sequence “AGTTTTGTAAGTGCAA (sugars k2 d4 e4 k2 d4, PS)”, the target mRNA inhibition turned out to be 4% (A431, 0.0156 µM); 23% (A431, 0.0625 µM); 80% (A431, 0.25 µM); 91% (A431, 1 µM); 94% (A431, 2 µM).
The sequence “GTTATGAAATTATTGG (sugars kkkddddkekekdddd, PS)” came in with a target mRNA inhibition (A431, 2 µM) of 79%.
Take “GAAGCTTTAAACTCAG (sugars kkkddddkekekdddd, PS)”: the target mRNA inhibition (A431, 2 µM) is 47%.
TGTGTTTAGGCATTCA (sugars k4 d9 k3, PS): the target mRNA inhibition reads like this: (A431, 0.25 µM) 61% and 86%; (A431, 1 µM) 65% and 86%.
Under “A431, 2 µM”, “CAGTTTTGTAAGTGCA (sugars k3 d4 k3 e1 d5, PS)” displayed a target mRNA inhibition of 92%.
Take “AGTATTGTTTTTGTGG (sugars kkddddkekekddddd, PS)”: the target mRNA inhibition (A431, 2 µM) turned out to be 75%.
In turn, “ACACATCATTGGGTTA (sugars kkddddkekekddddd, PS)” gave a target mRNA inhibition (A431, 2 µM) of 50%.
For “GCTAATTTTCTGACTG (sugars kkkddddkekeddddd, PS)”, the target mRNA inhibition runs as follows: (A431, 0.0156 µM) 10%; (A431, 0.0625 µM) 42%; (A431, 0.25 µM) 70%; (A431, 1 µM) 87%; (A431, 2 µM) 93%.
On to TGGAAATGCCAAAGTC (sugars k4 d9 k3, PS), for which the target mRNA inhibition runs as follows: (A431, 0.0625 µM) 62%; (A431, 0.25 µM) 88%; (A431, 1 µM) 96%.
“AGATTGGCTCTGGCTC (sugars kdddddkekekddddd, PS)” showed a target mRNA inhibition (A431, 2 µM) of 40%.
The same measure, in the same setting: under “ATCAGATGGGTACTTC (sugars k3 d4 k3 e1 d5, PS)” stands 88%.
The sequence “ATTTCTTGATGTGGTG (sugars kkddddkekekkdddd, PS)” displayed a target mRNA inhibition (A431, 2 µM) of 69%.
The same measure, in the same setting: the value for “ACGCAATGCTGACTTG (sugars k2 d4 e3 k2 d5, PS)” was 87%; that for “TTTATACCAGTGTCTT (sugars kkddddkekekkdddd, PS)” was 51%; that for “ATTCTATTAGAGGGCT (sugars kdddddkekekddddd, PS)” was 45%.
Where the note is “A431, 2 µM”, “AAGTATTGCCAGCTAA (sugars kkkddddkekekdddd, PS)” displayed a target mRNA inhibition of 47%.
Regarding “AGCTTTAAACTCAGGT (sugars kekddddeekkddddd, PS)”, where the note is “A431, 2 µM”, the target mRNA inhibition was 82%.
As to “GGAATTATGGAATTGC (sugars k2 d4 e3 k2 d5, PS)”, the target mRNA inhibition came out at 8% (A431, 0.0156 µM); 38% (A431, 0.0625 µM); 84% (A431, 0.25 µM); 96% (A431, 1 µM); 99% (A431, 2 µM).
As for “GCTTTAAACTCAGGTG (sugars kkddddkdkdkddddd, PS)”, the target mRNA inhibition (A431, 0.0156 µM) worked out at 25%; the target mRNA inhibition (A431, 0.0625 µM) stood at 63%; the target mRNA inhibition (A431, 0.25 µM) stood at 83%; the target mRNA inhibition (A431, 1 µM) was determined as 94%; the target mRNA inhibition (A431, 2 µM) amounted to 96%.
As to “CTTTATACCAGTGTCT (sugars kdddddkekekddddd, PS)”, the target mRNA inhibition (A431, 2 µM) was 89%.
Consider TGTTTAGGCATTCAGA (sugars k4 d9 k3, PS), for which the target mRNA inhibition by setting is: (A431, 0.0625 µM) 59% and 37%; (A431, 1 µM) 86% and 64%.
The sequence “GTAAGTATTGCCAGCT (sugars kkddddkekekddddd, PS)” had a target mRNA inhibition (A431, 2 µM) of 53%.
For “CTTTATACCAGTGTCT (sugars kkkddddkekeddddd, PS)”, the target mRNA inhibition (A431, 2 µM) is 94%.
“ATGCTAATTTTCTGAC (sugars kkddddkekekddddd, PS)”: the target mRNA inhibition runs as follows: (A431, 0.0156 µM) 25%; (A431, 0.0625 µM) 59%; (A431, 0.25 µM) 84%; (A431, 1 µM) 93%; (A431, 2 µM) 97%.
For “GTTATATTTGATCCTC (sugars kkkddddkekeddddd, PS)” the same measures were 32%, 65%, 88%, 96% and 98%.
As to “GTTCAAAAGCAGCATT (sugars kkddddkekekddddd, PS)”, the target mRNA inhibition (A431, 2 µM) was 60%.
The same measure, in the same setting: under “CGTCAATATATTCTTT (sugars kekddddeekkddddd, PS)” stands 93%.
As to TTCTATTAGAGGGCTA (sugars k4 d9 k3, PS), the target mRNA inhibition (A431, 0.04 µM) was 68%; the target mRNA inhibition (A431, 0.0625 µM) is 51% and 40%; the target mRNA inhibition (A431, 0.25 µM) was 81% and 72%; the target mRNA inhibition (A431, 1 µM) is 92% and 84% and 98%.
In turn, “GGAATTATGGAATTGC (sugars kdddddkekekddddd, PS)” registered a target mRNA inhibition (A431, 2 µM) of 92%.
With “CTTTATACCAGTGTCT (sugars kddddkekekeddddd, PS)”, for the setting “A431, 2 µM”, the target mRNA inhibition turned out to be 92%.
“ATTCAGAATTTCCACT (sugars kkddddekekeddddd, PS)” came in with a target mRNA inhibition (A431, 2 µM) of 87%.
In the case of “TTTATACCAGTGTCTT (sugars kkddddkekekddddd, PS)”, where the note is “A431, 2 µM”, the target mRNA inhibition is 89%.
Take “ACACATCATTGGGTTA (sugars k3 d4 k3 e1 d5, PS)”: the target mRNA inhibition (A431, 2 µM) came to 59%.
With “AGCTTTAAACTCAGGT (sugars kkkddddkekeddddd, PS)”, the target mRNA inhibition (A431, 2 µM) was found to be 85%.
Same read-out and setting: the value for “TGTAAGTGCAACCAAT (sugars kddddkekekeddddd, PS)” was 67%.
Take “TTATTCTCATGGTACA (sugars k2 d4 e3 k2 d5, PS)”: where the note is “A431, 2 µM”, the target mRNA inhibition came to 48%.
As for “TCAGATGGGTACTTCT (sugars kkddddkekekddddd, PS)”, under “A431, 2 µM”, the target mRNA inhibition is 82%.
In the case of GTTCAAAAGCAGCATT (sugars k4 d9 k3, PS), where the note is “A431, 0.04 µM”, the target mRNA inhibition was 15% and 11%.
“ATTCTCATGGTACAGG (sugars kkddddkdkdkddddd, PS)”: the target mRNA inhibition (A431, 2 µM) is 84%.
On to “GGAATTATGGAATTGC (sugars kddddkekekeddddd, PS)”, for which, where the note is “A431, 2 µM”, the target mRNA inhibition was 88%.
With TGGTTCAAAAGCAGCA (sugars k4 d9 k3, PS), the target mRNA inhibition worked out at 60% (A431, 0.0625 µM); 84% (A431, 0.25 µM); 94% (A431, 1 µM).
Sequence TGTTCTAACTCTTGGG (sugars k4 d9 k3, PS) gave a target mRNA inhibition (A431, 0.0625 µM) of 75%; a target mRNA inhibition (A431, 0.25 µM) of 88%; a target mRNA inhibition (A431, 1 µM) of 94%.
“CACATCATTGGGTTAT (sugars k2 d4 e3 k2 d5, PS)”: the target mRNA inhibition (A431, 2 µM) came to 86%.
Sequence “AGCTTTAAACTCAGGT (sugars k3 d5 k3 d5, PS)” showed a target mRNA inhibition (A431, 2 µM) of 68%.
For AGTCATTAGTGCTATA (sugars k4 d9 k3, PS), the target mRNA inhibition came out at 57% (A431, 0.0625 µM); 78% (A431, 0.25 µM); 88% (A431, 1 µM).
Where the note is “A431, 2 µM”, “TTTATACCAGTGTCTT (sugars kkddddkdkdkddddd, PS)” showed a target mRNA inhibition of 81%.
For “ATATCAGATGGGTACT (sugars kkkddddkekekdddd, PS)”, the target mRNA inhibition (A431, 2 µM) was found to be 28%.
Consider AACATGAAGTGAGCCT (sugars k4 d9 k3, PS), for which the target mRNA inhibition by setting is: (A431, 0.0625 µM) 20%; (A431, 0.25 µM) 49%; (A431, 1 µM) 73%.
With ATGCGGTACTGACTGA (sugars k4 d9 k3, PS), the target mRNA inhibition by setting is: (A431, 0.0625 µM) 49%; (A431, 0.25 µM) 69%; (A431, 1 µM) 88%.
CACTTTACATGCACGA (sugars k4 d9 k3, PS): the target mRNA inhibition was 26% (A431, 0.0625 µM); 65% (A431, 0.25 µM); 85% (A431, 1 µM).
For the sequence “GTTATGAAATTATTGG (sugars k3 d4 k3 e1 d5, PS)”, the target mRNA inhibition (A431, 0.0156 µM) turned out to be 21%; the target mRNA inhibition (A431, 0.0625 µM) is 56%; the target mRNA inhibition (A431, 0.25 µM) was determined as 85%; the target mRNA inhibition (A431, 1 µM) stood at 93%; the target mRNA inhibition (A431, 2 µM) turned out to be 96%.
Turning to “ACGCAATGCTGACTTG (sugars kddddkekekeddddd, PS)”, for the setting “A431, 2 µM”, the target mRNA inhibition came out at 72%.
For the setting “A431, 2 µM”, “CACTTTATACCAGTGT (sugars kkddddekekeddddd, PS)” returned a target mRNA inhibition of 0%.
Consider “TTATATTTGATCCTCA (sugars kkddddkekekkdddd, PS)”, for which the target mRNA inhibition (A431, 2 µM) was determined as 69%.
Consider ATCAGATGGGTACTTC (sugars k4 d9 k3, PS), for which the target mRNA inhibition reads like this: (A431, 0.0625 µM) 53%; (A431, 0.25 µM) 78%; (A431, 1 µM) 89%.
For the sequence “AGTATTGTTTTTGTGG (sugars kkdddddkekeddddd, PS)”, the target mRNA inhibition (A431, 2 µM) stood at 91%.
Still for that read-out and setting: the value for “AATTATGGAATTGCAG (sugars kkddddkekekkdddd, PS)” was 35%.
Consider CACCTGTTCACCGCTT (sugars k4 d9 k3, PS), for which the target mRNA inhibition reads like this: (A431, 0.0625 µM) 41%; (A431, 0.25 µM) 67%; (A431, 1 µM) 87%.
